System: macrophages at lung metastatic site
Assay: Early diagnosis of cancer metastasis in the 4T1-luc model: FDG-PET versus 111In-MSA-FL SPECT/CT (FIG. 8)
Assay type: in vivo, mouse
From the text: In order to verify the possibility of early diagnosis of cancer metastasis of the albumin-based nanoplatform conjugated with the mannosyl group, a model that may represent cancer metastasis was reproduced and confirmed through tissue staining whether it could actually reflect metastasis.
This animal model is known to naturally cause metastasis to secondary organs after transplanting cancer cells into mice, and is especially known to cause metastasis to the lung area, similar to the pattern of existing breast cancer.

Question: Which “time at which cancer metastasis could be diagnosed” value (day after modeling) does the source give for `OC[C@H]1O[C@@H](O)[C@H]([18F])[C@@H](O)[C@@H]1O` [FDG] here?
Answer: The value was 28 days.

Question: And the “nuclear medicine signal/image in the lung area before metastasis” value (imaging on days 7, 14, 21, 28)?
Answer: The value was “could hardly be confirmed”.

Question: What about the “uptake at the metastatic site, statistical significance” value (quantification FIG. 8(b)) of the same molecule?
Answer: Its value is “statistically significant difference only on Day 28”.

Reference: US20240199722A1, “NANOPLATFORM FOR TARGETING MACROPHAGE AND COMPOSITION FOR PREVENTION OR TREATMENT OF METASTATIC CANCER” (SEOUL NATIONAL UNIVERSITY R&DB FOUNDATION, priority 2021, published 2024)
